The target in one assay is CYP3A (Homo sapiens, UniProt P08684). As to the kind of experiment: KI and kinact assay (CYP3A inactivation) in HLMs. As to conditions: preincubation 0-30 min with NADPH-gs, 100 µM Tes. The arrangement: tissue Meilun Biotechnology Co., Ltd. (Dalian, China) lot No. M0202A; host or cells: pooled (mixed) male human liver microsomes. Type of assay: in vitro ADME. As to the method:
The following steps were similar as described in the IC50 shift assays. […] All the incubations were performed in triplicate.
Pharmacokinetic profiles of CTX and DCCTX were estimated by one-compartmental model using the DAS 2.0 software ([…], Medical College of Wannan, Anhui, China). Data were expressed as mean ± SD. Comparisons between two groups were performed using one-way ANOVA followed by LSD test in the condition of variance homogeneity or Dunnett T3 test in the case of variance heterogeneity. The differences were considered to be statistically significant at * p < 0.05 and ** p < 0.01. IC50 values of Gom A were determined by nonlinear regression analysis using GraphPad Prism 5.01 software (GraphPad Software Inc., San Diego, CA, USA). The mode of inhibition was verified by Lineweaver-Burk plots of the enzyme kinetic data, and the KI value was determined by linear regression analysis with GraphPad Prism 5.01 (GraphPad Software Inc.). The initial inactivation rate constant (kobs, min^−1) was estimated from the initial slope of the linear regression line at each concentration of Gom A. Then the values of kobs were plotted versus Gom A concentration, and the maximal inactivation rate constant kinact, along with the concentration of inactivator (at which the rate of the inactivation is half maiximal) KI values, were determined using Equation (1). […]

The subject of the next assay is rat hepatic CYP3A. As to the kind of experiment: Effect of Gom A pretreatment on rat hepatic CYP3A activity (liver microsomes from pretreated rats). Type of assay: in vivo. The following applies: RLMs; for DCCTX production decrease compared with control group: CTX 100 ng/mL; for rat hepatic CYP3A activity, % of the control group activity: Tes 25 µM. Here is the method: Rats were randomly divided into four groups (control group; pretreatment groups: 0.5 h group, 6 h group, 12 h group). Rats in control group and pretreatment groups were administrated (i.g.) with saline (2 mL/kg) and Gom A (20.8 mg/kg) respectively. In control group, rats were anesthetized 0.5 h after administration. In pretreatment groups, rats were anesthetized 0.5 h, 6 h, 12 h after Gom A pretreatment respectively. After anesthesia, the rat livers were infused with cool saline. After infusion, rats were euthanized and livers were collected. The liver microsomes were prepared using calcium precipitation method. Briefly, livers were weighted, washed with cool PBS (0.1 M), and then homogenized in cool Tris-PBS (50 mM Tris, w/v = 1:4). The mixture was centrifuged at 14,000 g for 20 min at 4 °C. The supernatant was mixed with CaCl2 solution (88 mM, vsupernantant/vCaCl2 = 10:1) and then centrifuged at 14,000 g for 20 min at 4 °C. The precipitate was resuspended in Tris-PBS and centrifuged (14,000 g, 4 °C, 20 min). Finally, the precipitate was resuspended in PBS containing 250 mM glucose, giving a concentration of 5 mg protein/mL. The prepared microsomes were stored at −80 °C until use.
To determine the effect of Gom A pretreatment on rat hepatic CYP3A activity, liver microsomes from control and pretreatment groups were incubated with Tes (25 µM) and CTX (100 ng/mL) respectively. The incubation procedures were similar with Section 4.3.1 and Section 4.3.4 for Tes and CTX incubation, respectively. For incubations using Tes, 0.5 mg/mL RLMs was incubated with 25 µM Tes in PBS (0.1 M) containing NADPH-gs at 37 °C in a total volume of 200 µL. After a 5 min warm up period, reactions were initiated with addition of NADPH-gs. Incubations were conducted at 37 °C for 10 min and then terminated by the addition of 200 µL ice-cold acetonitrile containing 18 ng/mL phenacetin (IS-I). For incubations using CTX, 0.5 mg/mL RLMs was incubated with 100 ng/mL CTX in PBS (0.1 M) containing NADPH-gs at 37 °C in a total volume of 200 µL. After a 5 min warm up period, reactions were initiated with addition of NADPH-gs. Incubations were conducted at 37 °C for 60 min and then terminated by the addition of 200 µL ice-cold acetonitrile containing 6 ng/mL of TNZ (IS-II).
After reaction termination, concentration of 6OH-Tes and DCCTX were determined.

Where [1] appears, read: 0.5 h after Gom A 20.8 mg/kg i.g.
Where [2] appears, read: 6 h after Gom A 20.8 mg/kg i.g.
Where [3] appears, read: 12 h after Gom A 20.8 mg/kg i.g.

Here are results for one substance from article PMC6152024 (Molecules : A Journal of Synthetic Chemistry and Natural …, 2017).

Sequence of CYP3A (P08684 2-503): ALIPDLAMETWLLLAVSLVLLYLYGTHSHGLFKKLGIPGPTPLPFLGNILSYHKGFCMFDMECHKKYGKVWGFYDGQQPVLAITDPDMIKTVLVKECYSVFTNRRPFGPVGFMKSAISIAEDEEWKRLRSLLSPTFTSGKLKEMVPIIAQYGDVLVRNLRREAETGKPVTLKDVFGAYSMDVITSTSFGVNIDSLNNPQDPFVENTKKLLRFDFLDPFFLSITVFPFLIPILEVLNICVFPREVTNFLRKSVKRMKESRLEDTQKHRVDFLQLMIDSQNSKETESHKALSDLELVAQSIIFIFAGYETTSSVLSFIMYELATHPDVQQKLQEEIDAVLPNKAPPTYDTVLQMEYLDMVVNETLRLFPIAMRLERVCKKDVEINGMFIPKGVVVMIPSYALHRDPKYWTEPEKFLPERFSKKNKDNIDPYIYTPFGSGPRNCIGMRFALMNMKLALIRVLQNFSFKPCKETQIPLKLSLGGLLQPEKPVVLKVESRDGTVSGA

Consider Gomisin A [Gom A], for which, at CYP3A, the kinact was found to be 1.96 min⁻¹. For the same substance, the entries for the “DCCTX production decrease compared with control group” value in the assay with rat hepatic CYP3A (setting [1]), in the assay with rat hepatic CYP3A (setting [2]) and with rat hepatic CYP3A (setting [3]) were 54.7%, 52.0% and 40.5%, respectively. The results for the “rat hepatic CYP3A activity, % of the control group activity” value with rat hepatic CYP3A (setting [1]), with rat hepatic CYP3A (setting [2]) and in the assay on rat hepatic CYP3A (setting [3]) were 52.1%, 37.3% and 61.2%, respectively.
